pEC50: −log10 of the molar value.
Each molecule was assayed on recombinant NL4-3 virus (Renilla luciferase in nef, Gag P373S; NLRluc) in MT-2 cells (assay: whole plant or invertebrate). Conditions: Renilla, NL43.
Type: cell-based, HIV
In short: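 Luciferase signal is the read-out: after 4-5 days of infection in the presence of serially diluted compound, MT-2 cells are lysed with a premix of lysis buffer, luciferase reagent and Stop & Glo substrate, and luminescence is read immediately.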
With `C=C(C)[C@@H]1CC[C@]2(NCCN3CCS(=O)(=O)CC3)CC[C@]3(C)[C@H](CC[C@@H]4[C@@]5(C)CC=C(c6ccc(C(=O)O[C@H]7O[C@H](C(=O)O)[C@@H](O)[C@H](O)[C@H]7O)cc6)C(C)(C)[C@@H]5CC[C@]43C)[C@@H]12` [Example B7B, (2S,3S,4S,5R,6R)-6-((4-((1R,3aS,5aR,5bR,7aR,11aS,11bR,13aR,13bR)-3a-((2-(1,1-dioxidothiomorpholino)ethyl)amino)-5a,5b,8,8,11a-pentamethyl-1-(prop-1-en-2-yl)-2,3,3a,4,5,5a,5b,6,7,7a,8,11,11a,11b,12,13,13a,13b-octadecahydro-1H-cyclopenta[a]chrysen-9-yl)benzoyl)oxy)-3,4,5-trihydroxytetrahydro-2H-pyran-2-carboxylic acid] the pEC50 was > 7.00.
`C=C(C)[C@@H]1CC[C@]2(NCCNC3CCS(=O)(=O)C3)CC[C@]3(C)[C@H](CC[C@@H]4[C@@]5(C)CC=C(c6ccc(C(=O)O)cc6)C(C)(C)[C@@H]5CC[C@]43C)[C@@H]12` (stereo partly drawn) [Example B8, 4-((1R,3aS,5aR,5bR,7aR,11aS,11bR,13aR,13bR)-3a-((2-((1,1-dioxidotetrahydrothiophen-3-yl)amino)ethyl)amino)-5a,5b,8,8,11a-pentamethyl-1-(prop-1-en-2-yl)-2,3,3a,4,5,5a,5b,6,7,7a,8,11,11a,11b,12,13,13a,13b-octadecahydro-1H-cyclopenta[a]chrysen-9-yl)benzoic acid] was tested, and the pEC50 was > 7.00.

Same assay, conditions: Renilla, NL43, luciferase activity in cells infected for 4-5 days with NLRluc recombinants, serial dilutions of inhibitor; class symbols (key in Table 1); read-out: EC50
With `C=C(C)[C@@H]1CC[C@]2(NCCN3CCS(=O)(=O)CC3)CC[C@]3(C)[C@H](CC[C@@H]4[C@@]5(C)CC=C(c6ccc(C(=O)O[C@H]7O[C@H](C(=O)OCc8ccccc8)[C@@H](O)[C@H](O)[C@H]7O)cc6)C(C)(C)[C@@H]5CC[C@]43C)[C@@H]12` [Example B7A, (2S,3S,4S,5R,6R)-benzyl 6-((4-((1R,3aS,5aR,5bR,7aR,11aS,11bR,13aR,13bR)-3a-((2-(1,1-dioxidothiomorpholino)ethyl)amino)-5a,5b,8,8,11a-pentamethyl-1-(prop-1-en-2-yl)-2,3,3a,4,5,5a,5b,6,7,7a,8,11,11a,11b,12,13,13a,13b-octadecahydro-1H-cyclopenta[a]chrysen-9-yl)benzoyl)oxy)-3,4,5-trihydroxytetrahydro-2H-pyran-2-carboxylate] the pEC50 was > 7.00.
For `CNC(=O)CN[C@]12CC[C@@H](C(C)C)[C@@H]1[C@H]1CC[C@@H]3[C@@]4(C)CC[C@H](c5ccc(C(=O)O)cc5)C(C)(C)[C@@H]4CC[C@@]3(C)[C@]1(C)CC2` [Example B10, 4-((1S,3aS,5aR,5bR,7aS,9S,11aS,11bR,13aR,13bR)-1-isopropyl-5a,5b,8,8,11a-pentamethyl-3a-((2-(methylamino)-2-oxoethyl)amino)icosahydro-1H-cyclopenta[a]chrysen-9-yl)benzoic acid], the pEC50 was > 7.00.
`CC(C)[C@@H]1CC[C@]2(NCCCN3CCOCC3)CC[C@]3(C)[C@H](CC[C@@H]4[C@@]5(C)CC=C(c6ccc(C(=O)O)cc6)C(C)(C)[C@@H]5CC[C@]43C)[C@@H]12` [Example B11, 4-((1S,3aS,5aR,5bR,7aR,11aS,11bR,13aR,13bR)-1-isopropyl-5a,5b,8,8,11a-pentamethyl-3a-((3-morpholinopropyl)amino)-2,3,3a,4,5,5a,5b,6,7,7a,8,11,11a,11b,12,13,13a,13b-octadecahydro-1H-cyclopenta[a]chrysen-9-yl)benzoic acid] was tested, and the pEC50 was > 7.00.
With `C=C(C)[C@@H]1CC[C@]2(NCCC(=O)O)CC[C@]3(C)[C@H](CC[C@@H]4[C@@]5(C)CC=C(c6ccc(C(=O)O)cc6)C(C)(C)[C@@H]5CC[C@]43C)[C@@H]12` [Example B12, 4-((1R,3aS,5aR,5bR,7aR,11aS,11bR,13aR,13bR)-3a-((2-carboxyethyl)amino)-5a,5b,8,8,11a-pentamethyl-1-(prop-1-en-2-yl)-2,3,3a,4,5,5a,5b,6,7,7a,8,11,11a,11b,12,13,13a,13b-octadecahydro-1H-cyclopenta[a]chrysen-9-yl)benzoic acid] the pEC50 was > 7.00.
In the case of `C=C(C)[C@@H]1CC[C@]2(NCCN3CCN(C(=O)OC(C)(C)C)CC3)CC[C@]3(C)[C@H](CC[C@@H]4[C@@]5(C)CC=C(c6ccc(C(=O)O)cc6)C(C)(C)[C@@H]5CC[C@]43C)[C@@H]12` [Example B13, 4-((1R,3aS,5aR,5bR,7aR,11aS,11bR,13aR,13bR)-3a-((2-(4-(tert-butoxycarbonyl)piperazin-1-yl)ethyl)amino)-5a,5b,8,8,11a-pentamethyl-1-(prop-1-en-2-yl)-2,3,3a,4,5,5a,5b,6,7,7a,8,11,11a,11b,12,13,13a,13b-octadecahydro-1H-cyclopenta[a]chrysen-9-yl)benzoic acid], the pEC50 was > 7.00.
With `C=C(C)[C@@H]1CC[C@]2(NCCN3CCC(S(C)(=O)=O)CC3)CC[C@]3(C)[C@H](CC[C@@H]4[C@@]5(C)CC=C(c6ccc(C(=O)O)cc6)C(C)(C)[C@@H]5CC[C@]43C)[C@@H]12` [Example B14, 4-((1R,3aS,5aR,5bR,7aR,11aS,11bR,13aR,13bR)-5a,5b,8,8,11a-pentamethyl-3a-((2-(4-(methylsulfonyl)piperidin-1-yl)ethyl)amino)-1-(prop-1-en-2-yl)-2,3,3a,4,5,5a,5b,6,7,7a,8,11,11a,11b,12,13,13a,13b-octadecahydro-1H-cyclopenta[a]chrysen-9-yl)benzoic acid] the pEC50 was > 7.00.
`C=C(C)[C@@H]1CC[C@]2(NCCN3CCN(S(C)(=O)=O)CC3)CC[C@]3(C)[C@H](CC[C@@H]4[C@@]5(C)CC=C(c6ccc(C(=O)O)cc6)C(C)(C)[C@@H]5CC[C@]43C)[C@@H]12` [Example B15, 4-((1R,3aS,5aR,5bR,7aR,11aS,11bR,13aR,13bR)-5a,5b,8,8,11a-pentamethyl-3a-((2-(4-(methylsulfonyl)piperazin-1-yl)ethyl)amino)-1-(prop-1-en-2-yl)-2,3,3a,4,5,5a,5b,6,7,7a,8,11,11a,11b,12,13,13a,13b-octadecahydro-1H-cyclopenta[a]chrysen-9-yl)benzoic acid] was tested, and the pEC50 was > 7.00.
`CC(C)[C@@H]1CC[C@]2(NCCN3CCN(S(C)(=O)=O)CC3)CC[C@]3(C)[C@H](CC[C@@H]4[C@@]5(C)CC[C@H](c6ccc(C(=O)O)cc6)C(C)(C)[C@@H]5CC[C@]43C)[C@@H]12` [Example B16, 4-((1S,3aS,5aR,5bR,7aS,9S,11aS,11bR,13aR,13bR)-1-isopropyl-5a,5b,8,8,11a-pentamethyl-3a-((2-(4-(methylsulfonyl)piperazin-1-yl)ethyl)amino)icosahydro-1H-cyclopenta[a]chrysen-9-yl)benzoic acid] was tested, and the pEC50 was > 7.00.
For `C=C(C)[C@@H]1CC[C@]2(NCCN3CC4(COC4)C3)CC[C@]3(C)[C@H](CC[C@@H]4[C@@]5(C)CC=C(c6ccc(C(=O)O)cc6)C(C)(C)[C@@H]5CC[C@]43C)[C@@H]12` [Example B17, 4-((1R,3aS,5aR,5bR,7aR,11aS,11bR,13aR,13bR)-3a-((2-(2-oxa-6-azaspiro[3.3]heptan-6-yl)ethyl)amino)-5a,5b,8,8,11a-pentamethyl-1-(prop-1-en-2-yl)-2,3,3a,4,5,5a,5b,6,7,7a,8,11,11a,11b,12,13,13a,13b-octadecahydro-1H-cyclopenta[a]chrysen-9-yl)benzoic acid], the pEC50 was > 7.00.

Same assay, conditions: Renilla, NL43, luciferase activity in cells infected for 4-5 days with NLRluc recombinants, serial dilutions of inhibitor; numeric values; read-out: EC50
Molecule `CC(C)NC(=O)CN[C@]12CC[C@@H](C(C)C)[C@@H]1[C@H]1CC[C@@H]3[C@@]4(C)CC[C@H](c5ccc(C(=O)O)cc5)C(C)(C)[C@@H]4CC[C@@]3(C)[C@]1(C)CC2` [Example B9] has a pEC50 of 8.00.

Source: patent US20140343000A1 (priority 2011, published 2014)
